Results on twelve compounds are retold here after publication PMC2014795 (PLoS Pathogens, 2007).

In general, IC50 refers to the point on the concentration scale where inhibition reaches its midpoint.

The experiment concerns the target T1, HLA-DR1 (DRB1*0101) (Homo sapiens, UniProt P01903+P01911, A100R/D57E/F55L/F60I/F76Y/I96L/L162R/M171V/P40L/Q125E/R42F/V115G/Y59C).
T1 construct: the extracellular portion of HLA-DR1 was produced by expression of isolated subunits in Escherichia coli inclusion bodies; made in house
In words: biochemical. In kind it is binding.

Where two headings read alike, the source gives them in different places. Where no end group is shown, it is not given here.

Compound `CC[C@H](C)[C@H](NC(=O)CNC(=O)[C@H](CCCCN)NC(=O)[C@@H](N)Cc1c[nH]c2ccccc12)C(=O)N[C@@H](Cc1ccc(O)cc1)C(=O)N[C@H](C(=O)N[C@@H](Cc1ccc(O)cc1)C(=O)N[C@@H](CCCNC(=N)N)C(=O)N[C@H](C(=O)N[C@H](C(=O)N[C@@H](CCCCN)C(=O)N[C@@H](CO)C(=O)N[C@@H](CO)C(=O)N[C@@H](Cc1ccccc1)C(=O)N1CCC[C@H]1C(=O)N[C@H](C(=O)N1CCC[C@H]1C(=O)N[C@H](C(=O)N[C@H](C(=O)N[C@@H](CCCCN)C(=O)N[C@@H](CO)C(=O)O)[C@@H](C)CC)[C@@H](C)O)C(C)C)[C@@H](C)CC)[C@@H](C)CC)[C@@H](C)O` [Peptide 335] returned a 50% inhibitory concentration (IC50) of 38 ± 11 nM.
Same read-out and setting: then `CC[C@H](C)[C@H](NC(=O)[C@H](Cc1ccccc1)NC(=O)[C@H](CC(C)C)NC(=O)[C@H](CC(C)C)NC(=O)[C@H](CS)NC(=O)[C@@H](NC(=O)[C@H](C)NC(=O)[C@H](C)NC(=O)[C@@H](NC(=O)[C@H](C)N)[C@@H](C)O)C(C)C)C(=O)N[C@@H](CCC(N)=O)C(=O)NCC(=O)N[C@@H](Cc1ccc(O)cc1)C(=O)N[C@@H](CO)C(=O)N[C@H](C(=O)N[C@@H](Cc1ccc(O)cc1)C(=O)N[C@@H](CCC(=O)O)C(=O)N[C@@H](CC(N)=O)C(=O)N[C@@H](Cc1ccc(O)cc1)C(=O)NCC(=O)N[C@@H](CC(N)=O)C(=O)O)[C@@H](C)CC` [Peptide 336], with 280 ± 40 nM.
Same read-out and setting: then `CC[C@H](C)[C@H](NC(=O)[C@H](CCCNC(=N)N)NC(=O)[C@H](CO)NC(=O)CNC(=O)[C@H](CCC(N)=O)NC(=O)[C@H](CCC(=O)O)NC(=O)[C@@H](NC(=O)CNC(=O)[C@H](CC(C)C)NC(=O)[C@@H]1CCCN1C(=O)[C@H](CCCCN)NC(=O)[C@H](CCSC)NC(=O)[C@H](CC(C)C)NC(=O)[C@H](CC(C)C)NC(=O)[C@H](CC(C)C)NC(=O)[C@H](CC(N)=O)NC(=O)[C@H](Cc1ccccc1)NC(=O)[C@H](CCSC)NC(=O)[C@H](CC(=O)O)NC(=O)[C@H](Cc1ccc(O)cc1)NC(=O)[C@@H](N)CO)[C@@H](C)CC)C(=O)O` [Peptide 337], with 28 ± 6 nM; and `CC[C@H](C)[C@H](N)C(=O)N[C@@H](CC(=O)O)C(=O)N[C@@H](CC(N)=O)C(=O)NCC(=O)N[C@@H](CO)C(=O)N[C@@H](CC(N)=O)C(=O)N[C@@H](CCSC)C(=O)N[C@@H](CC(C)C)C(=O)N[C@H](C(=O)N[C@@H](CC(C)C)C(=O)N[C@@H](CC(N)=O)C(=O)N1CCC[C@H]1C(=O)N[C@H](C(=O)N[C@@H](CCC(N)=O)C(=O)N[C@@H](CO)C(=O)N[C@@H](CC(=O)O)C(=O)N[C@@H](CO)C(=O)NCC(=O)N[C@H](C(=O)N[C@@H](Cc1ccc(O)cc1)C(=O)N[C@H](C(=O)O)[C@@H](C)CC)[C@@H](C)CC)[C@@H](C)O)[C@@H](C)CC` [Peptide 338], with 980 ± 170 nM.
The same measure, in the same setting: then `CC[C@H](C)[C@H](NC(=O)[C@H](CCC(=O)O)NC(=O)[C@H](CC(=O)O)NC(=O)[C@@H](NC(=O)[C@H](CC(=O)O)NC(=O)[C@H](CC(C)C)NC(=O)[C@@H](NC(=O)[C@H](CCCCN)NC(=O)CNC(=O)[C@H](Cc1c[nH]cn1)NC(=O)[C@@H](NC(=O)[C@@H](NC(=O)[C@H](Cc1ccc(O)cc1)NC(=O)[C@H](CCSC)NC(=O)[C@H](CC(=O)O)NC(=O)[C@H](Cc1ccc(O)cc1)NC(=O)[C@@H]1CCCN1C(=O)[C@H](CC(C)C)NC(=O)[C@H](CCCNC(=N)N)NC(=O)[C@@H](N)CCCCN)[C@@H](C)CC)[C@@H](C)CC)C(C)C)[C@@H](C)CC)C(=O)N[C@@H](CC(C)C)C(=O)O` [Peptide 339], with 210 ± 45 nM; and `CC[C@H](C)[C@H](N)C(=O)N[C@@H](CO)C(=O)N[C@@H](CCC(=O)O)C(=O)N1CCC[C@H]1C(=O)N[C@H](C(=O)N[C@@H](CC(N)=O)C(=O)N[C@H](C(=O)N[C@@H](Cc1ccc(O)cc1)C(=O)N[C@@H](CC(C)C)C(=O)N[C@@H](CC(C)C)C(=O)N[C@@H](C)C(=O)N[C@@H](C)C(=O)N[C@H](C(=O)N[C@@H](Cc1ccc(O)cc1)C(=O)N[C@@H](CO)C(=O)N[C@@H](CC(=O)O)C(=O)N[C@@H](Cc1ccccc1)C(=O)N[C@@H](CC(N)=O)C(=O)N[C@@H](CC(=O)O)C(=O)N[C@@H](CCC(=O)O)C(=O)N[C@H](C(=O)O)C(C)C)C(C)C)C(C)C)C(C)C` [Peptide 341], with 32 ± 2 nM.
For the compound `CC[C@H](C)[C@H](N)C(=O)N[C@@H](CC(=O)O)C(=O)N[C@@H](CC(N)=O)C(=O)N[C@@H](CCC(=O)O)C(=O)N[C@@H](CO)C(=O)NCC(=O)N[C@@H](Cc1c[nH]c2ccccc12)C(=O)N[C@@H](CCCCN)C(=O)N[C@H](C(=O)N[C@@H](CC(C)C)C(=O)N[C@H](C(=O)N[C@@H](CO)C(=O)N[C@@H](CCCNC(=N)N)C(=O)N[C@@H](C)C(=O)N[C@H](C(=O)N[C@@H](CC(=O)O)C(=O)N[C@@H](CC(C)C)C(=O)N[C@@H](CO)C(=O)N[C@@H](CO)C(=O)N[C@@H](CCCCN)C(=O)N[C@@H](CCCCN)C(=O)O)[C@@H](C)CC)C(C)C)[C@@H](C)O` [Peptide 342], the IC50 worked out at 130 ± 10 nM.
Still for that read-out and setting: in the case of `CC[C@H](C)[C@H](NC(=O)[C@H](C)NC(=O)[C@H](CCCNC(=N)N)NC(=O)CNC(=O)[C@@H](NC(=O)[C@@H](NC(=O)[C@H](CCC(N)=O)NC(=O)[C@H](CCCNC(=N)N)NC(=O)[C@H](CC(C)C)NC(=O)[C@H](CO)NC(=O)[C@H](C)NC(=O)[C@H](CCC(=O)O)NC(=O)[C@H](CC(N)=O)NC(=O)[C@H](Cc1c[nH]c2ccccc12)NC(=O)[C@@H](N)[C@@H](C)O)[C@@H](C)CC)C(C)C)C(=O)N[C@@H](CCCNC(=N)N)C(=O)N[C@@H](CC(C)C)C(=O)N[C@@H](CC(N)=O)C(=O)N[C@@H](CO)C(=O)N[C@@H](Cc1c[nH]cn1)C(=O)N[C@H](C(=O)O)C(C)C` [Peptide 343] it was 210 ± 20 nM.
Same read-out and setting: in the case of `CC[C@H](C)[C@H](N)C(=O)N[C@H](C(=O)N[C@H](C(=O)N[C@@H](Cc1c[nH]c2ccccc12)C(=O)N1CCC[C@H]1C(=O)N[C@@H](CCCCN)C(=O)N[C@@H](Cc1ccccc1)C(=O)N[C@@H](CCCNC(=N)N)C(=O)N[C@H](C(=O)N[C@H](C(=O)N[C@@H](CCCCN)C(=O)N1CCC[C@H]1C(=O)N[C@@H](CC(N)=O)C(=O)N[C@@H](CO)C(=O)N[C@@H](Cc1ccccc1)C(=O)N[C@H](C(=O)N[C@@H](Cc1ccccc1)C(=O)N[C@@H](CO)C(=O)N[C@@H](Cc1ccccc1)C(=O)N[C@@H](CO)C(=O)N[C@@H](CO)C(=O)O)[C@@H](C)O)C(C)C)C(C)C)[C@@H](C)O)[C@@H](C)O` [Peptide 344] it was 33 ± 5 nM.
As for `CC[C@H](C)[C@H](NC(=O)[C@H](CO)NC(=O)[C@H](CC(N)=O)NC(=O)[C@H](Cc1ccccc1)NC(=O)[C@@H](NC(=O)[C@H](CC(C)C)NC(=O)[C@H](CCC(N)=O)NC(=O)[C@H](CC(=O)O)NC(=O)[C@H](CCC(=O)O)NC(=O)[C@@H](N)Cc1ccccc1)C(C)C)C(=O)N[C@@H](CO)C(=O)N[C@@H](C)C(=O)N[C@@H](CCCNC(=N)N)C(=O)N[C@@H](C)C(=O)N[C@@H](CC(C)C)C(=O)N[C@@H](CCCCN)C(=O)N[C@@H](C)C(=O)N[C@@H](Cc1ccc(O)cc1)C(=O)N[C@@H](Cc1ccccc1)C(=O)N[C@H](C(=O)N[C@@H](C)C(=O)O)[C@@H](C)O` [Peptide 345], the half-inhibitory concentration (IC50) stood at 8 ± 0.3 nM.
Regarding `CSCC[C@H](NC(=O)[C@H](CC(=O)O)NC(=O)[C@@H](NC(=O)[C@H](CCCNC(=N)N)NC(=O)[C@H](CCSC)NC(=O)[C@H](Cc1ccccc1)NC(=O)[C@@H]1CCCN1C(=O)[C@@H](NC(=O)[C@H](CCC(N)=O)NC(=O)[C@H](CCCCN)NC(=O)CNC(=O)[C@@H]1CCCN1C(=O)[C@@H](N)CC(N)=O)C(C)C)[C@@H](C)O)C(=O)N[C@@H](CC(C)C)C(=O)O` [Peptide B7055], where the note is “HLA-DR1 competition assay, unpublished data, read-out: IC50”, the concentration for half-maximal inhibition (IC50) turned out to be 11 nM.
TTKHPDYAILAARIAVSNLHK [Peptide 307] had a half-inhibitory concentration (IC50) of 28 ± 4 nM.
